Patent publication US20120202794A1 (priority 2011, published 2012)

Legend:
HCV Replicon 1b = assay: HCV inhibition assay, HCV replicon 1b (Clone A or ET-lunet cells; RT-PCR or luciferase reporter); format: cell-based; details: Hepatitis C virus, 96 h, HCV replicon 1b; 4 days incubation; read-out: Replicon 1b potency EC90
How it was run: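 Clone A (1500/well) or ET-lunet (3000/well) replicon cells treated with serially diluted compounds (0.5% DMSO, no G418) for 4 days at 37 °C. HCV RNA measured by one-step RT-PCR normalized to rRNA (ΔΔCt) or by luciferase luminescence versus DMSO controls; EC50/EC90 by curve fitting.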

[1] = Cell cytotoxicity assay (MTS), CC90 as reported in Table 1, cell line not stated; format: cell-based; details: human; MTS assay; 8 days incubation; cell line not given
How it was run: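 Compounds, serially diluted from 100 μM, were incubated 8 days at 37° C with Huh7, HepG2 or BxPC3 (2×10^3 cells/well) or CEM (5×10^3 cells/well). Viability was read by MTS, 2 h, absorbance 490 nm. CC90 (90% inhibition) was taken against untreated cells.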

SMILES	EC90 (HCV Replicon 1b) [nM]	CC90 at 8 days [1] [nM]
CC(C)C[C@H]1C(=O)N[C@@H](c2ccccc2Cl)CN1C(=O)c1noc(-c2ccc(F)cc2)n1 [Compound 371, (3S,6S)-6-(2-chlorophenyl)-4-(5-(4-fluorophenyl)-1,2,4-oxadiazole-3-carbonyl)-3-isobutylpiperazin-2-one]	470	> 10000
CC(C)C[C@H]1C(=O)N[C@@H](c2ccccc2F)CN1C(=O)c1cc(-c2ccc(F)cc2)no1 [Compound 372, (3S,6S)-6-(2-fluorophenyl)-4-(3-(4-fluorophenyl)isoxazole-5-carbonyl)-3-isobutylpiperazin-2-one]	700	> 10000
CC(C)C[C@H]1C(=O)N[C@@H](c2ccccc2F)CN1C(=O)/C=C/c1ccc(F)cc1F [Compound 374, (3S,6S)-4-((E)-3-(2,4-difluorophenyl)acryloyl)-6-(2-fluorophenyl)-3-isobutylpipera-zin-2-one]	750	> 10000
CC(C)C[C@H]1C(=O)N[C@@H](c2ccccc2)CN1C(=O)c1noc(-c2ccc(F)cc2)c1F [Compound 376, (3S,6S)-4-(4-fluoro-5-(4-fluorophenyl)isoxazole-3-carbonyl)-3-isobutyl-6-phenyl-piperazin-2-one]	500	> 10000
CC(C)C[C@H]1CN(C(=O)c2noc(-c3ccc(F)cc3)c2F)[C@@H](CC(C)C)C(=O)N1 [Compound 379, (3S,6S)-4-(4-fluoro-5-(4-fluorophenyl)isoxazole-3-carbonyl)-3,6-diisobutylpiperazin-2-one]	210	> 10000
CC(C)C[C@H]1C(=O)N[C@@H](c2ccccc2F)CN1C(=O)c1noc(-c2ccc(F)cc2)c1F [Compound 380, (3S,6S)-4-(4-fluoro-5-(4-fluorophenyl)isoxazole-3-carbonyl)-6-(2-fluorophenyl)-3-isobutylpiperazin-2-one]	180	> 10000
CC(C)C[C@H]1C(=O)N[C@@H](C2CCCC2)CN1C(=O)c1noc(-c2ccc(F)cc2)c1F [Compound 381, (3S,6S)-6-cyclopentyl-4-(4-fluoro-5-(4-fluorophenyl)isoxazole-3-carbonyl)-3-isobutylpiperazin-2-one]	250	> 10000
CC(C)C[C@H]1C(=O)N[C@@H](C2CCCCC2)CN1C(=O)c1noc(-c2ccc(F)cc2)c1F [Compound 382, (3S,6S)-6-cyclohexyl-4-(4-fluoro-5-(4-fluorophenyl)isoxazole-3-carbonyl)-3-isobutylpiperazin-2-one]	370	> 10000
CC(C)C[C@H]1CN(C(=O)c2noc(-c3ccc(F)cc3F)c2F)[C@@H](CC(C)C)C(=O)N1 [Compound 383, (3S,6S)-4-(5-(2,4-difluorophenyl)-4-fluoroisoxazole-3-carbonyl)-3,6-diisobutyl-piperazin-2-one]	710	> 10000
CC(C)C[C@H]1C(=O)N[C@@H](c2ccccc2)CN1C(=O)c1noc(-c2ccc(F)cc2F)c1F [Compound 385, (3S,6S)-4-(5-(2,4-difluorophenyl)-4-fluoroisoxazole-3-carbonyl)-3-isobutyl-6-phenylpiperazin-2-one]	500	> 10000
CC(C)C[C@H]1C(=O)N[C@@H](c2ccccc2F)CN1C(=O)c1noc(-c2ccc(F)cc2F)c1F [Compound 386, (3S,6S)-4-(5-(2,4-difluorophenyl)-4-fluoroisoxazole-3-carbonyl)-6-(2-fluorophenyl)-3-isobutylpiperazin-2-one]	570	> 10000
CCC[C@H]1CN(C(=O)c2noc(-c3ccc(F)cc3F)c2F)[C@@H](CC(C)C)C(=O)N1 [Compound 387, (3S,6S)-4-(5-(2,4-difluorophenyl)-4-fluoroisoxazole-3-carbonyl)-3-isobutyl-6-propylpiperazin-2-one]	260	> 10000
CC(C)C[C@H]1C(=O)N[C@@H](C2CCCC2)CN1C(=O)c1noc(-c2ccc(F)cc2F)c1F [Compound 388, (3S,6S)-6-cyclopentyl-4-(5-(2,4-difluorophenyl)-4-fluoroisoxazole-3-carbonyl)-3-isobutylpiperazin-2-ono]	670	> 10000
CC(C)C[C@H]1C(=O)N[C@@H](C2CCCCC2)CN1C(=O)c1noc(-c2ccc(F)cc2F)c1F [Compound 389, (3S,6S)-6-cyclohexyl-4-(5-(2,4-difluorophenyl)-4-fluoroisoxazole-3-carbonyl)-3-isobutylpiperazin-2-one]	1450	> 10000
CC(C)C[C@H]1C(=O)N[C@@H](c2ccccc2)CN1C(=O)c1noc(-c2ccc(F)c(F)c2)c1F [Compound 390, (3S,6S)-4-(5-(3,4-difluorophenyl)-4-fluoroisoxazole-3-carbonyl)-3-isobutyl-6-phenylpiperazin-2-one]	2050	> 10000
CC(C)C[C@H]1C(=O)N[C@@H](c2ccccc2F)CN1C(=O)c1noc(-c2ccc(F)c(F)c2)c1F [Compound 392, (3S,6S)-4-(5-(3,4-difluorophenyl)-4-fluoroisoxazole-3-carbonyl)-6-(2-fluorophenyl)-3-isobutylpiperazin-2-one]	1910	> 10000
CCC[C@H]1CN(C(=O)c2noc(-c3ccc(F)c(F)c3)c2F)[C@@H](CC(C)C)C(=O)N1 [Compound 393, (3S,6S)-4-(5-(3,4-difluorophenyl)-4-fluoroisoxazole-3-carbonyl)-3-isobutyl-6-propylpiperazin-2-one]	260	> 10000
CC(C)C[C@H]1CN(C(=O)c2noc(-c3ccc(F)c(F)c3)c2F)[C@@H](CC(C)C)C(=O)N1 [Compound 394, (3S,6S)-4-(5-(3,4-difluorophenyl)-4-fluoroisoxazole-3-carbonyl)-3,6-diisobutyl-piperazin-2-one]	660	> 10000
CC(C)C[C@H]1C(=O)N[C@@H](C2CCCC2)CN1C(=O)c1noc(-c2ccc(F)c(F)c2)c1F [Compound 395, (3S,6S)-6-cyclopentyl-4-(5-(3,4-difluorophenyl)-4-fluoroisoxazole-3-carbonyl)-3-isobutylpiperazin-2-one]	1020	> 10000
CC(C)C[C@H]1C(=O)N[C@@H](C2CCCCC2)CN1C(=O)c1noc(-c2ccc(F)c(F)c2)c1F [Compound 396, (3S,6S)-6-cyclohexyl-4-(5-(3,4-difluorophenyl)-4-fluoroisoxazole-3-carbonyl)-3-isobutylpiperazin-2-one]	1820	> 10000
CCC[C@H]1C(=O)N[C@@H](c2ccccc2)CN1C(=O)c1cc(-c2ccc(F)cc2)on1 [Compound 397, (3S,6S)-4-(5-(4-fluorophenyl)isoxazole-3-carbonyl)-6-phenyl-3-propylpiperazin-2-one]	890	> 10000
CCC[C@H]1C(=O)N[C@@H](c2ccccc2)CN1C(=O)[C@@H]1C[C@H]1c1ccccc1 [Compound 399, (3S,6S)-6-phenyl-4-((1R,2R)-2-phenylcyclopropanecarbonyl)-3-propylpiperazin-2-one]	2070	> 10000
CC(C)[C@H]1C(=O)N[C@@H](c2ccccc2)CN1C(=O)c1cc(-c2ccc(F)cc2)on1 [Compound 400, (3S,6S)-4-(5-(4-fluorophenyl)isoxazole-3-carbonyl)-3-isopropyl-6-phenylpiperazin-2-one]	970	> 10000
CC(C)[C@H]1C(=O)N[C@@H](c2ccccc2)CN1C(=O)[C@@H]1C[C@H]1c1ccccc1 [Compound 402, (3S,6S)-3-isopropyl-6-phenyl-4-((1R,2R)-2-phenylcyclopropanecarbonyl)piperazin-2-one]	6630	> 10000
CC(C)[C@H]1C(=O)N[C@@H](c2ccccc2)CN1C(=O)c1noc(-c2ccc(F)cc2)n1 [Compound 403, (3S,6S)-4-(5-(4-fluorophenyl)-1,2,4-oxadiazole-3-carbonyl)-3-isopropyl-6-phenyl-piperazin-2-ono]	270	> 10000
CC(C)[C@H]1C(=O)N[C@@H](c2ccccc2)CN1C(=O)c1nc(-c2ccc(F)cc2)no1 [Compound 404, (3S,6S)-4-(3-(4-fluorophenyl)-1,2,4-oxadiazole-5-carbonyl)-3-isopropyl-6-phenyl-piperazin-2-one]	1580	> 10000
CC(C)C[C@H]1CN(C(=O)c2noc(-c3ccc(Cl)cc3)n2)[C@@H](CC(C)C)C(=O)N1 [Compound 405, (3S,6S)-4-(5-(4-chlorophenyl)-1,2,4-oxadiazole-3-carbonyl)-3,6-diisobutylpiperazin-2-one]	320	> 10000
CC(C)C[C@H]1C(=O)N[C@@H](c2ccccc2)CN1C(=O)c1noc(-c2ccc(Cl)cc2)n1 [Compound 406, (3S,6S)-4-(5-(4-chlorophenyl)-1,2,4-oxadiazole-3-carbonyl)-3-isobutyl-6-phenyl-piperazin-2-one]	230	> 10000
C=CC[C@H]1C(=O)N[C@@H](c2ccccc2)CN1C(=O)c1cc(-c2ccc(F)cc2)on1 [Compound 407, (3S,6S)-3-allyl-4-(5-(4-fluorophenyl)isoxazole-3-carbonyl)-6-phenylpiperazin-2-one]	740	> 10000
C=CC[C@H]1C(=O)N[C@@H](CCC)CN1C(=O)c1cc(-c2ccc(F)cc2)on1 [Compound 409, (3S,6S)-3-allyl-4-(5-(4-fluorophenyl)isoxazole-3-carbonyl)-6-propylpiperazin-2-one]	1880	> 10000
